According to patent US20160002247A1, “8-SUBSTITUTED IMIDAZOPYRIMIDINONE DERIVATIVE HAVING AUTOTAXIN INHIBITORY ACTIVITY” (THE UNIVERSITY OF TOKYO, priority 2013, published 2016):
pIC50: −log10 of the molar value.

Each compound was assayed against T1, Human autotaxin enzyme (Homo sapiens, UniProt Q13822) (assay: Evaluation of autotaxin inhibitor, Method B (Test Example 2): TG-mTMP fluorescence). Settings: Assay Method B (Test Example 2), human autotaxin; read-out: Inhibitory Activity (autotaxin enzyme inhibitory activity, IC50 class).
T1 construct: purchased R&D System
Format: biochemical
Experimental: (Method B) Evaluation of Autotaxin Inhibitor
Solution A containing 25 mM Tris-HCl buffer (pH7.5), 100 mM NaCl, 5 mM MgCl2 and 0.1% BSA was prepared. Human autotaxin enzyme (purchased from R&D System) was diluted with Solution A, and 5 μL of which was added to a solution of test compound in DMSO. Furthermore, 5 μl of 0.5 μM TG-mTMP in Solution A was added and allowed to react at room temperature for 2 hours. 5 μl of 150 mM EDTA in Solution A was added to quench the reaction, and the fluorescent dye TokyoGreen, which was produced by the reaction, was detected. The fluorescence was detected using ViewLux (PerkinElmer, Inc.) with an excitation wavelength of 480 nm and a fluorescence wavelength of 540 nm.

SMILES	pIC50
CCCCCn1c(N(C)C)cc(=O)n2cc(-c3ccc(Cl)cc3)nc12 [Compound 231]	> 8.00
CCCCCn1c(/C=C/c2ccccc2)cc(=O)n2cc(-c3ccc(Cl)cc3)nc12 [Compound 398]	7.00 to 8.00
CCCCCn1c(NCc2ccc(OC)cc2)cc(=O)n2cc(-c3ccc(Cl)cc3)nc12 [Compound 226]	7.00 to 8.00
Cc1cc(=O)n2cc(-c3ccc(Cl)cc3)nc2n1CC1CCOC1 (centres unmarked) [Compound 118]	6.00 to 7.00
Cc1cc(=O)n2cc(-c3ccc(Cl)cc3)nc2n1Cc1ccc(COc2ccccc2)cc1 [Compound 120]	< 6.00
CCCCCn1c(-c2cscn2)cc(=O)n2cc(-c3ccc(Cl)cc3)nc12 [Compound 418]	7.00 to 8.00
CCCCCn1c(N2CCC2)cc(=O)n2cc(-c3ccc(Cl)cc3)nc12 [Compound 196]	> 8.00
CCCCCn1c(C)cc(=O)n2cc(-c3ccc4c(c3)CCO4)nc12 [Compound 149]	6.00 to 7.00
CCCCCn1c(C)cc(=O)n2cc(-c3ccc(N4CCCC4=O)cc3)nc12 [Compound 148]	< 6.00
Cc1cc(=O)n2cc(-c3ccc(Cl)cc3)nc2n1Cc1ccncc1 [Compound 109]	6.00 to 7.00
CCCCCn1c(C)cc(=O)n2cc(-c3ccc(C#N)cc3)nc12 [Compound 157]	> 8.00
Cc1cc(=O)n2cc(-c3ccc(Cl)cc3)nc2n1Cc1ccc(F)cc1F [Compound 101]	7.00 to 8.00
CCCCCn1c(Oc2nccs2)cc(=O)n2cc(-c3ccc(Cl)cc3)nc12 [Compound 268]	> 8.00
CCCCCn1c(C)c(F)c(=O)n2cc(-c3cccc(Cl)c3)nc12 [Compound 212]	< 6.00
N#CCCCCn1c(-c2ccc(C(N)=O)cc2)cc(=O)n2cc(-c3ccc(C#N)cc3)nc12 [Compound 385]	> 8.00
Cc1cc(=O)n2cc(-c3ccc(Cl)cc3)nc2n1Cc1ccc(C(F)(F)F)cc1 [Compound 116]	6.00 to 7.00

SMILES	pIC50
CCCCCn1c(C)c(CCOCC)c(=O)n2cc(-c3ccc(Cl)cc3)nc12 [Compound 216]	< 6.00
CCCCCn1c(C)cc(=O)n2cc(-c3ccc(C4CCCCC4)cc3)nc12 [Compound 145]	< 6.00
CCCCCn1c(-n2ccccc2=O)cc(=O)n2cc(-c3ccc(Cl)cc3)nc12 [Compound 426]	> 8.00
CCCCCn1c(NCCN2CCOCC2)cc(=O)n2cc(-c3ccc(Cl)cc3)nc12 [Compound 238]	> 8.00
CCCCCn1c(N2CCOCC2)cc(=O)n2cc(-c3ccc(Cl)cc3)nc12 [Compound 234]	> 8.00
CCCCCOC(=O)Cc1c(C)n(CCCCC)c2nc(-c3ccc(Cl)cc3)cn2c1=O [Compound 215]	> 8.00
CCCCCn1c(C(=O)O)cc(=O)n2cc(-c3ccc(Cl)cc3)nc12 [Compound 372]	7.00 to 8.00
CCCCCn1c(N2CCNCC2)cc(=O)n2cc(-c3ccc(Cl)cc3)nc12 [Compound 254]	> 8.00
CCCc1cn2c(=O)ccn(CCc3ccc(Cl)cc3)c2n1 [Compound 128]	< 6.00
CCCCCn1c(N(CCO)CCO)cc(=O)n2cc(-c3ccc(Cl)cc3)nc12 [Compound 253]	7.00 to 8.00
C#CCCCCCCCCCOc1cc(=O)n2cc(-c3ccc(Cl)cc3)nc2n1CCCCC [Compound 271]	< 6.00
Cc1cc(=O)n2cc(-c3ccc(Cl)cc3)nc2n1Cc1ccc(Cl)c(Cl)c1 [Compound 104]	7.00 to 8.00
CCCCCn1c(N2CCC(N3CCOCC3)CC2)cc(=O)n2cc(-c3ccc(Cl)cc3)nc12 [Compound 244]	7.00 to 8.00
CCCCCn1c(N2CCCC2CCCC)cc(=O)n2cc(-c3ccc(Cl)cc3)nc12 (centres unmarked) [Compound 277]	7.00 to 8.00
CCCCCn1c(C)cc(=O)n2cc(-c3ccc(C)cc3C)nc12 [Compound 154]	7.00 to 8.00

The remaining lines, values ahead:

pIC50	SMILES
> 8.00	CCCCCn1c(CO)cc(=O)n2cc(-c3ccc(Cl)cc3)nc12 [Compound 367]
7.00 to 8.00	CCCCCn1c(NCc2ccc3c(c2)OCO3)cc(=O)n2cc(-c3ccc(Cl)cc3)nc12 [Compound 249]
> 8.00	CCCCCn1c(C)c(CCC(=O)O)c(=O)n2cc(-c3ccc(Cl)cc3)nc12 [Compound 180]
7.00 to 8.00	Cc1cc(=O)n2cc(-c3ccc(Cl)cc3)nc2n1Cc1ccc(-c2ncccn2)cc1 [Compound 91]
7.00 to 8.00	CCCCCn1c(NCCO)cc(=O)n2cc(-c3ccc(Cl)cc3)nc12 [Compound 222]
7.00 to 8.00	Cc1cc(=O)n2cc(-c3ccc(Cl)cc3)nc2n1Cc1ccccn1 [Compound 114]
> 8.00	CCCCCn1c(N2CCN(CCCOC)CC2)cc(=O)n2cc(-c3ccc(Cl)cc3)nc12 [Compound 243]
7.00 to 8.00	CCCCCn1c(C)cc(=O)n2cc(-c3ccc(OC(F)F)cc3)nc12 [Compound 155]
> 8.00	N#Cc1ccc(-c2cn3c(=O)cc(NCc4ccc(C(=O)O)cc4)n(CCCC(F)(F)F)c3n2)cc1 [Compound 289]
7.00 to 8.00	CCCCCn1c(-c2cc[nH]n2)cc(=O)n2cc(-c3ccc(Cl)cc3)nc12 [Compound 417]
> 8.00	CCCCCn1c(-c2ccc(C(=O)NCCN3CCOCC3)cc2)cc(=O)n2cc(-c3ccc(Cl)cc3)nc12 [Compound 374]
6.00 to 7.00	CCCCCn1c(C)cc(=O)n2cc(-c3ccsc3)nc12 [Compound 144]
> 8.00	CCCCCn1c(C)c(CC(=O)NCC)c(=O)n2cc(-c3ccc(Cl)cc3)nc12 [Compound 181]
7.00 to 8.00	Cc1cc(=O)n2cc(-c3ccc(Cl)cc3)nc2n1Cc1ccc(S(=O)(=O)C(F)F)cc1 [Compound 113]
7.00 to 8.00	Cc1cc(=O)n2cc(-c3ccc(Cl)cc3)nc2n1CCCCF [Compound 94]
6.00 to 7.00	CCCCCn1c(C)cc(=O)n2cc(-c3ccccc3F)nc12 [Compound 163]
7.00 to 8.00	Cc1cc(=O)n2cc(-c3ccc(Cl)cc3)nc2n1Cc1ccc(C(C)C)cc1 [Compound 95]
7.00 to 8.00	CCCCCn1c(C)cc(=O)n2c(C)c(-c3ccc(Cl)cc3)nc12 [Compound 170]

pIC50	SMILES
7.00 to 8.00	CCCCCn1c(OC(C)C)cc(=O)n2cc(-c3ccc(Cl)cc3)nc12 [Compound 272]
< 6.00	CCCCCn1c(C)cc(=O)n2cc(-c3ccc(C(=O)OCC)cc3)nc12 [Compound 151]
> 8.00	CCCCCn1c(OC2CCN(C)CC2)cc(=O)n2cc(-c3ccc(Cl)cc3)nc12 [Compound 193]
7.00 to 8.00	CCCCCn1c(C)cc(=O)n2cc(-c3ccc(OC)cc3)nc12 [Compound 152]
7.00 to 8.00	CCCCCn1c(-c2ccc(N)cc2)cc(=O)n2cc(-c3ccc(Cl)cc3)nc12 [Compound 422]
7.00 to 8.00	CCCCCn1c(C)c(CC)c(=O)n2cc(-c3ccc(Cl)cc3)nc12 [Compound 205]
> 8.00	N#Cc1ccc(-c2cn3c(=O)cc(N4CCC(C(=O)O)CC4)n(CCCC(F)(F)F)c3n2)cc1 [Compound 285]
7.00 to 8.00	CCCCCn1c(-c2ccc(N3CCOCC3)cc2)cc(=O)n2cc(-c3ccc(Cl)cc3)nc12 [Compound 421]
> 8.00	CCCCCn1c(C)cc(=O)n2cc(-c3ccc(C(F)(F)F)cc3)nc12 [Compound 161]
7.00 to 8.00	CCCCCn1c(N2CCC[C@@H]2C)cc(=O)n2cc(-c3ccc(Cl)cc3)nc12 [Compound 258]
7.00 to 8.00	CCCCCn1c(NCc2cccn2C)cc(=O)n2cc(-c3ccc(Cl)cc3)nc12 [Compound 228]
> 8.00	N#Cc1ccc(-c2cn3c(=O)cc(-c4ccc(C(=O)NCCN5CCOCC5)cc4)n(CCCC(F)(F)F)c3n2)cc1 [Compound 389]
> 8.00	CCCCCn1c(N2CC(O)C2)cc(=O)n2cc(-c3ccc(Cl)cc3)nc12 [Compound 274]
> 8.00	CCCCCn1c(N2CCN(CC(=O)N(C)C)CC2)cc(=O)n2cc(-c3ccc(Cl)cc3)nc12 [Compound 240]
6.00 to 7.00	Cc1cc(=O)n2cc(-c3ccc(Cl)cc3)nc2n1Cc1ccc(OC(F)(F)F)cc1 [Compound 122]
> 8.00	N#CCCCCn1c(-c2ccc(C(N)=O)cc2)cc(=O)n2cc(-c3ccc(Cl)cc3)nc12 [Compound 379]
> 8.00	CCCCCn1c(N2CCC(C(=O)O)CC2)cc(=O)n2cc(-c3ccc(Cl)cc3)nc12 [Compound 225]
6.00 to 7.00	CCCCCOC(=O)CCc1c(C)n(CCCCC)c2nc(-c3ccc(Cl)cc3)cn2c1=O [Compound 217]

Same assay, conditions: Assay Method: Method B (Test Example 2); read-out: Inhibitory Activity (Enzyme Inhibitory Activity, IC50)

SMILES	pIC50
CCC(C)Cn1c(C)cc(=O)n2cc(-c3ccc(Cl)cc3)nc12 (centres unmarked) [Compound 71]	7.00 to 8.00
CCCCn1c(C)cc(=O)n2cc(-c3ccc(Cl)cc3)nc12 [Compound 7]	7.00 to 8.00
Cc1cc(=O)n2cc(-c3ccc(Cl)cc3)nc2n1CC(=O)OC(C)C [Compound 72]	7.00 to 8.00
Cc1ccccc1Cn1c(C)cc(=O)n2cc(-c3ccc(Cl)cc3)nc12 [Compound 64]	6.00 to 7.00
Cc1cc(=O)n2cc(-c3ccc(Cl)cc3)nc2n1CC1CCCCC1 [Compound 58]	7.00 to 8.00
CCCC(O)Cn1c(C)cc(=O)n2cc(-c3ccc(Cl)cc3)nc12 (centres unmarked) [Compound 42]	7.00 to 8.00
Cc1cc(=O)n2cc(-c3ccc(Cl)cc3)nc2n1CC(C)C [Compound 78]	7.00 to 8.00
Cc1cc(=O)n2cc(-c3ccc(Cl)cc3)nc2n1C1CCC1 [Compound 83]	7.00 to 8.00
Cc1cc(=O)n2cc(-c3ccc(Cl)cc3)nc2n1Cc1ccccc1 [Compound 13]	7.00 to 8.00
Cc1cc(=O)n2cc(-c3ccc(Cl)cc3)nc2n1CC1CCC1 [Compound 77]	7.00 to 8.00

Next, values leading:

pIC50	SMILES
6.00 to 7.00	CCN(CC)C(=O)Cn1c(C)cc(=O)n2cc(-c3ccc(Cl)cc3)nc12 [Compound 62]
7.00 to 8.00	CCCCCCn1c(C)cc(=O)n2cc(-c3ccc(Cl)cc3)nc12 [Compound 8]

Same assay, conditions: Inhibitory Activity (Enzyme Inhibitory Activity, IC50), Assay Method: Method B (Test Example 2)

SMILES	pIC50
CCOC(=O)Cn1c(C)cc(=O)n2cc(-c3ccc(Cl)cc3)nc12 [Compound 20]	> 8.00
